Laboratory results as given in the supplement of paper PMC5412046.
Structures can show the parent of a compound that is named as a salt.

Assays:
SB.mhdgc-1 [1] = assay: viability at highest tested concentration (MAXR) relative to DMSO; higher = less cytotoxic; details: SB.mhdgc-1 (hereditary c.1380delA CDH1 gastric cancer)
In short: (§1)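 The measure is viability normalised to DMSO, given as trapezoidal area under the curve or at the highest concentration. Patient-derived gastric cancer cells, hereditary or sporadic, were exposed for 48 h to compound at 11 threefold-diluted concentrations, each compound's top concentration being recorded. Luminescence was read on a ViewLux after 30 min with CellTiter-Glo at room temperature.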

SB.msgc-1 [2] = assay: as above; details: SB.msgc-1 (sporadic gastric cancer)
In short: as §1

SB.mhdgc-1 [3] = assay: area under the dose-response curve of % viability (trapezoidal, 11 doses) (% viability x log10 concentration); higher = less cytotoxic; details: SB.mhdgc-1 (hereditary c.1380delA CDH1 gastric cancer)
In short: as §1

SB.msgc-1 [4] = assay: as above; details: SB.msgc-1 (sporadic gastric cancer)
In short: as §1

Row | SMILES | viability (SB.mhdgc-1 [1]) | viability (SB.msgc-1 [2]) | area under the dose-response curve (SB.mhdgc-1 [3]) | area under the dose-response curve (SB.msgc-1 [4])
1 | CCCCOc1ccc(C(=O)Nc2ccc(F)cc2F)cc1 (top concentration 46.0829 µM) | 114% | 58.2% | 522 | 348
2 | CCCCN(CCCC)CC(O)c1cc(Cl)cc2c1-c1ccc(Cl)cc1/C2=C/c1ccc(Cl)cc1 (stereo not drawn) [Lumefantrine] (top concentration 46.0829 µM) | 12% | 60.5% | 560 | 476
3 | OC1=CC=C(C=C1)\C2=C\C(=O)C3=C(O2)C=C(O)C=C3O [Apigenin] (top concentration 46.0829 µM) | 20.6% | 41.1% | 504 | 499
4 | CN1CCC[C@@H]1CCO[C@](C)(c1ccccc1)c1ccc(Cl)cc1 [Clemastine fumarate] (top concentration 46.0829 µM) | 15.4% | 45.6% | 508 | 480
5 | Nc1cccc(-c2cc3c(Oc4cccc(O)c4)ncnc3[nH]2)c1 [TWS-119] (top concentration 46.0829 µM) | 48% | 32.8% | 456 | 522
6 | CCOC(=O)c1cncn1[C@H](C)c1ccccc1 [Etomidate] (top concentration 46.0829 µM) | 107% | 90.1% | 593 | 533
7 | CC(=O)[C@]1(O)Cc2c(O)c3c(c(O)c2[C@@H](O[C@H]2C[C@H](N)[C@H](O)[C@H](C)O2)C1)C(=O)c1ccccc1C3=O [Idarubicin hydrochloride] (top concentration 46.0829 µM) | 2.79% | 2.05% | 319 | 372
8 | COc1cc(N2CCN(C)CC2)ccc1Nc1nc(N)c(C(=O)c2c(Cl)cccc2Cl)s1 (top concentration 46.0829 µM) | 35.6% | 53.8% | 457 | 478
9 | O=C(NCC1CCCCN1)c1cc(OCC(F)(F)F)ccc1OCC(F)(F)F (stereo not drawn) [Flecainide] (top concentration 46.0829 µM) | 3.79% | 7.7% | 456 | 499
10 | Cc1cccc(-c2nn(C(=S)Nc3ccccc3)cc2-c2ccnc3ccccc23)n1 [A 83-01] (top concentration 46.0829 µM) | 110% | 74% | 550 | 534
11 | O[C@@H]1[C@@H](O)[C@H](O[C@@H]([C@H]1O)C(O)=O)OC2=C(O)C(=C3C(=O)\C=C(/OC3=C2)C4=CC=CC=C4)O [Baicalin] (top concentration 46.0829 µM) | 91.1% | 84.5% | 578 | 511
12 | COc1ccc(C[C@@H](C)[C@@H](C)Cc2ccc(OC)c(OC)c2)cc1OC [Terameprocol] (top concentration 46.0829 µM) | 36.6% | 34.2% | 445 | 455
13 | CC1=CC=C(C=C1)\C2=N\C3=CC=C(Cl)C=C3OC2 [AR7] (top concentration 46.0829 µM) | 39.3% | 35.4% | 506 | 446
14 | CNC(=O)c1c(-c2ccc(F)cc2)oc2cc(N(CCO)[S+](C)(=O)[O-])c(C3CC3)cc12 [Nesbuvir] (top concentration 46.0829 µM) | 4.32% | 64.6% | 373 | 438
15 | NC[C@@H]1O[C@H](O[C@H]2[C@@H](O)[C@H](O[C@@H]3[C@@H](O)[C@H](N)C[C@H](N)[C@H]3O[C@H]3O[C@H](CN)[C@@H](O)[C@H](O)[C@H]3N)O[C@@H]2CO)[C@H](N)[C@@H](O)[C@@H]1O.O=S(=O)(O)O.O=S(=O)(O)O.O=S(=O)(O)O [Neomycin sulfate] (top concentration 46.0829 µM) | 135% | 96.6% | 578 | 516
16 | c1cc(CN2CCCNCCNCCCNCC2)ccc1CN1CCCNCCNCCCNCC1 [Plerixafor hydrochloride] (top concentration 46.0829 µM) | 109% | 81.5% | 579 | 450
17 | COc1cccc(Nc2c(C(N)=O)cnc3c(C)cc([S+](=O)([O-])c4cccc(C(=O)N(C)C)c4)cc23)c1 (top concentration 23.0415 µM) | 83.4% | 105% | 500 | 597
18 | CCCCCCCCCCCCCCCC(=O)O[C@@H]1[C@@H](O)[C@@H](O)[C@@H]([C@H](NC(=O)[C@@H]2C[C@@H](CCC)CN2C)[C@H](C)Cl)O[C@@H]1SC.Cl [Clindamycin palmitate] (top concentration 46.0829 µM) | 89.9% | 91.8% | 533 | 583
19 | CC1=C(CC(=O)O)c2cc(F)ccc2/C1=C\c1ccc([S+](C)[O-])cc1 (stereo not drawn) [Sulindac] (top concentration 46.0829 µM) | 35.4% | 46.5% | 472 | 452
20 | O=C(Nc1cc2cc[nH]c2cn1)c1ccccc1 [OAC1] (top concentration 46.0829 µM) | 13.9% | 20.4% | 395 | 397
21 | COC(=O)[C@@H](N)CCCNC(=N)N[N+](=O)[O-] [L-NAME] (top concentration 46.0829 µM) | 21.9% | 48.5% | 460 | 509
22 | Cc1ccc(O)c(C(CCN(C(C)C)C(C)C)c2ccccc2)c1.Cl (stereo not drawn) [Tolterodine tartrate] (top concentration 46.0829 µM) | 83.9% | 109% | 501 | 571
